Reference: patent US20020025929A1, “METHOD OF BUILDING AND MAINTAINING BONE” (priority 1997, published 2002)
Marks after values point to notes of the source that are not given here.

How the values were obtained:
Type in all cases: in vivo, Sprague-Dawley rats
[1] = system: osteopenic ovariectomized rats; assay: Static and dynamic histomorphometry of L-1 vertebra; details: OVX rats; for BFR/BS (bone formation rate) / BFR/TV (bone formation rate) / BV/TV (cancellous bone volume) / MAR (mineral apposition rate) / MS/BS (mineralizing surface) / Tb.N (trabecular number) / Tb.Sp (trabecular separation) / Tb.Th (trabecular thickness): L-1 vertebra, mean ± SEM; for BV/TV, trabecular thickness, trabecular number of L-1 vertebra (in words): second study; for MAR of L-1 vertebra (in words): compound 1a 0.01-1 mg/kg, EE2
Description: Oral administration was by gavage in a vehicle comprising 1 mL/kg of body weight of a 20% aqueous solution of hydroxypropyl-β-cyclodextrin. Compound 1a was administered by gavage in a vehicle of 1 mL/kg of body weight of a 20% aqueous solution of cyclodextrin. The estrogen-treated control animals were administered 0.1 mg/kg/day 17α-ethynyl estradiol by gavage.
Subcutaneous administration of PTH(1-34) was by injection of an acidified saline vehicle (0.001 N HCl and 2% heated-inactivated rat serum in physiological saline (Butler Co., Columbus, Ohio, USA).
For histomorphometry, L-1 vertebra were trimmed, using a low-speed diamond saw (Buehler Ltd., Lake Bluff, Ill.) and fixed in 70% ethanol. Specimens were stained for 4 days in Villanueva osteochrome bone stain (Polysciences Inc., Warrington, Pa.), destained, dehydrated in a graded series of alcohols, and defatted in acetone. L-1 vertebra were then infiltrated with methyl methacrylate (as described by Schenk et al. 1984) and embedded in a 75 ml: 19 ml: 2.5 g mixture of methyl methacrylate: dibutyl phthalate: benzoyl peroxide (Kodak, Rochester, N.Y.) and polymerized at room temperature. Longitudinal sections (4 and 8 μm) were cut on a Reichert-Jung 2065 microtome (Magee Scientific Inc., Dexter, Mich.). The 4 μm sections were stained with 6% silver nitrate (Von Kossa stain) before coverslipping; the 8 μm thick sections were mounted unstained for dynamic measurements. Sections were glued onto slides dipped in 0.5% gelatin, dried overnight, and coverslipped with Eukitt.
Histomorphometric measurements were made using an Optiphot-2 fluorescence microscope (Nikon, Melville, N.Y.) and a semi-automatic digitizing system (SummaSketch III, Summagraphics Co., Seymour, Conn.; KSS Image Analysis, KSS Scientific Consultants, Magna Utah) coupled to a PowerPC 7100/66 (Apple Computer, Cupertino, Calif.), using the image capture functions of NIH Image 1.59 (NIH, Bethesda, Md.). For L-1, the entire marrow region within the cortical shell was measured to derive trabecular bone parameters. Specifically, measurements were made of cancellous bone volume (BV/TV, %), trabecular thickness (Tb.Th, μm), number (Tb.N, #/mm) and separation (Tb.Sp, μm), mineralizing surface, mineral apposition rate, and bone formation rate, as previously described (Frost 1983; Jee et al. 1985; Parfitt et al., 1987).
(§1) In a second study, virgin Sprague-Dawley rats were bilaterally ovariectomized (except for the sham-operated group), the ovariectomized animals randomized, and allowed to lose bone for one month prior to treatment in the manner described above. The animal groups, each containing 7-8 animals, included sham-operated animals (SHAM); bilaterally ovariectomized animals (OVX); bilaterally ovariectomized animals treated with 0.01, 0.3 or 1 mg/kg/day of compound 1a, respectively, for three months; bilaterally ovariectomized animals treated subcutaneously with PTH(1-34) at a dose of 10 μg/kg/day for three months; bilaterally ovariectomized animals treated subcutaneously with PTH(1-34) at a dose of 10 μg/kg/day and orally with compound 1a at a dose of 0.3 mg/kg/day, both compounds administered for three months; bilaterally ovariectomized animals treated subcutaneously with PTH(1-34) at a dose of 10 μg/kg/day for forty-five days followed by gavage administration of vehicle for forty-five days; bilaterally ovariectomized animals treated subcutaneously with PTH(1-34) at a dose of 10 μg/kg/day for forty-five days followed by oral administration of only compound 1a at a dose of 0.3 mg/kg/day for forty-five days; and bilaterally ovariectomized animals treated with 17α-ethynyl estradiol administered orally at a dose of 0.1 mg/kg/day.

[2] = system: osteopenic ovariectomized rats; assay: Longitudinal pQCT of proximal tibial metaphysis; details: OVX rats, FIG. 1
Description: (§2) The metaphysis of proximal tibiae were scanned longitudinally from baseline, using a 960A pQCT loaded with Dichte software version 5.2 (Norland/Stratec, Ft. Atkinson, Wis.), using the technique described by Sato et al., —1995, JPET 272:1252-1259; Sato 1995, Bone 17:157S-162S). Volumetric bone mineral density (BMD, mg/cm3), cross-sectional area (X-Area), voxel number, and mineral content (BMC, mg) were quantitated for the whole cross-section of the metaphysis. Sites of excised bones were analyzed at higher resolution, using a micro-CT (Stratec). Specifically, distal femora (below the condyles, see Sato et al. 1995) and L-3 vertebra (mid-cross section, Helterbrand et al., 1997, Bone 21:401-409) were analyzed using voxel dimensions of 50 ×50×1000 μm and 70×70×1000 μm, respectively.
as §1
In the second study, the proximal tibial metaphysis was scanned longitudinally by pQCT for rats from baseline.
Treatment, as indicated, was initiated after 1 month postovariectomy and continued for the following 3 months. Specifically, administration of compound 1a alone(closed triangles), PTH (1-34) alone (open triangles), in combination (closed squares), or in sequence (closed diamonds) were compared to OVX (open circles), Sham (closed circles), and estrogen (EE2, open diamonds) controls.

osteopenic rats = assay: Micro-CT of L-3 vertebra; details: continuous dosing, 1a 0.01-1 mg/kg, 17α-ethynyl estradiol 0.1 mg/kg, PTH (1-34), 1a 0.3 mg/kg with PTH (1-34), FIG. 3
Description: as §2
In a second study, virgin Sprague-Dawley rats were bilaterally ovariectomized (except for the sham-operated group), the ovariectomized animals randomized, and allowed to lose bone for one month prior to treatment in the manner described above. […]

[3] = 3 months: PTH (1-34) 10 μg/kg/day s.c., PTH + 1a 0.3 mg/kg/day oral, EE2 0.1 mg/kg/day oral
[4] = PTH (1-34) 10 μg/kg/day s.c. 45 days, then vehicle or 1a 0.3 mg/kg/day oral 45 days
[5] = treated continuously 3 months (90 days), at termination, 1a 0.01, 0.3, 1.0 mg/kg, EE2 0.1 mg/kg, PTH (1-34) 10 μg/kg
[6] = Cmpd 1a 0.01 mg/kg/day oral, 3 months
[7] = Cmpd 1a 0.3 mg/kg/day oral, 3 months
[8] = Cmpd 1a 1 mg/kg/day oral, 3 months

Compound: PTH: N-terminal 1-34 fragment of human parathyroid hormone, hPTH(1-34, Sequence ID No. 3); PTH/vehicle = 45 days PTH then vehicle
- BFR/BS (bone formation rate) [1, 3]: 25.1 ± 5^s,o μ/d × 100
- BFR/TV (bone formation rate) [1, 3]: 94.5 ± 29.7^s.o %/y
- BV/TV (cancellous bone volume) [1, 3]: 38.9 ± 9^o %
- MAR (mineral apposition rate) [1, 3]: 1.0 ± .11^s,o μ/d
- MS/BS (mineralizing surface) [1, 3]: 24.82 ± 2.62^s,o %
- Tb.N (trabecular number) [1, 3]: 6.07 ± .86^s #/mm
- Tb.Sp (trabecular separation) [1, 3]: 104.1 ± 29^o μ
- Tb.Th (trabecular thickness) [1, 3]: 63.8 ± 11^s,o μ
- BFR/BS (bone formation rate) [1, 4]: 17.68 ± 5.9^s μ/d × 100
- BFR/TV (bone formation rate) [1, 4]: 55.17 ± 20.3^s %/y
- BV/TV (cancellous bone volume) [1, 4]: 20.1 ± 3.9^s %
- MAR (mineral apposition rate) [1, 4]: 0.89 ± .09^s,o μ/d
- MS/BS (mineralizing surface) [1, 4]: 19.62 ± 4.88^s %
- Tb.N (trabecular number) [1, 4]: 5.16 ± .98^s #/mm
- Tb.Sp (trabecular separation) [1, 4]: 160 ± 32^s μ
- Tb.Th (trabecular thickness) [1, 4]: 39.4 ± 7^s μ
- dynamic parameters MS/BS, MAR, BFR/BS, BFR/TV of L-1 vertebra (in words) ([1]; PTH (1-34) discontinued (PTH/v) or switched to compound 1a (PTH/0.3) at 45 days): lowered MS/BS, BFR/BS and BFR/TV to OVX levels
- BV/TV and trabecular thickness of L-1 vertebra (in words) ([1]; PTH (1-34) discontinued or switched to compound 1a at 45 days): decreased BV/TV and trabecular thickness to below Sham
- dynamic parameters MS/BS, MAR, BFR/BS, BFR/TV of L-1 vertebra (in words) ([1]; continuous treatment): increased MS/BS, MAR, BFR/BS and BFR/TV to significantly above Sham and OVX
- BV/TV, trabecular thickness, trabecular number of L-1 vertebra (in words) ([1]; continuous treatment): improved BV/TV and trabecular thickness above OVX
- volumetric BMD of proximal tibial metaphysis (pQCT) ([2]; PTH (1-34) 45 days then discontinued or switched to compound 1a, at termination): BMD decreased to significantly below Sham
- volumetric BMD of proximal tibial metaphysis (pQCT) ([2]; after PTH (1-34) for 45 days): regained BMD to Sham levels
- spinal BMD or BMC of L-3 vertebra (micro-CT) (osteopenic rats): improved BMD to significantly above OVX

Compound: C#C[C@]1(O)CC[C@H]2[C@@H]3CCc4cc(O)ccc4[C@H]3CC[C@@]21C [EE2, 17α-ethynyl estradiol]
- BFR/BS (bone formation rate) [1, 3]: 8.76 ± 1.99^o μ/d × 100
- BFR/TV (bone formation rate) [1, 3]: 32.76 ± 6.9 %/y
- BV/TV (cancellous bone volume) [1, 3]: 21.8 ± 4.1^s %
- MAR (mineral apposition rate) [1, 3]: 0.58 ± .05^s.o μ/d
- MS/BS (mineralizing surface) [1, 3]: 14.97 ± 3.07^o %
- Tb.N (trabecular number) [1, 3]: 6.20 ± .66 #/mm
- Tb.Sp (trabecular separation) [1, 3]: 127.5 ± 17.5 μ
- Tb.Th (trabecular thickness) [1, 3]: 35.3 ± 5.6^s μ
- BV/TV, trabecular thickness, trabecular number of L-1 vertebra (in words) ([1]; continuous treatment): little effect on BV/TV, trabecular thickness, or trabecular number
- MAR of L-1 vertebra (in words) ([1]; continuous treatment): lowered MAR to below OVX, Sham, and compound 1a
- volumetric BMD of proximal tibial metaphysis (pQCT) [2, 5]: BMD significantly greater than OVX at termination
- spinal BMD or BMC of L-3 vertebra (micro-CT) (osteopenic rats): marginal effects

Compound: COc1ccc(-c2sc3cc(O)ccc3c2Oc2ccc(OCCN3CCCCC3)cc2)cc1 [Compound 1a, 6-hydroxy-2-(4-methoxyphenyl)-3-[4-(2-piperidin-1-ylethoxy)phenoxy]-benzo[b]thiophene]
- BFR/BS (bone formation rate) [1, 6]: 11.45 ± 1.9 μ/d × 100
- BFR/TV (bone formation rate) [1, 6]: 40.30 ± 11.41 %/y
- BV/TV (cancellous bone volume) [1, 6]: 24.4 ± 5.9^s %
- MAR (mineral apposition rate) [1, 6]: 0.72 ± .06 μ/d
- MS/BS (mineralizing surface) [1, 6]: 15.90 ± 2.21^s.o %
- Tb.N (trabecular number) [1, 6]: 5.77 ± 1.2^s #/mm
- Tb.Sp (trabecular separation) [1, 6]: 137.6 ± 37^s μ
- Tb.Th (trabecular thickness) [1, 6]: 42.4 ± 6 μ
- BFR/BS (bone formation rate) [1, 7]: 9.48 ± 1.43^o μ/d × 100
- BFR/TV (bone formation rate) [1, 7]: 35.51 ± 9.14 %/y
- BV/TV (cancellous bone volume) [1, 7]: 22.3 ± 3^s %
- MAR (mineral apposition rate) [1, 7]: 0.66 ± .11 μ/d
- MS/BS (mineralizing surface) [1, 7]: 14.47 ± 1.78^o %
- Tb.N (trabecular number) [1, 7]: 6.07 ± .87^s #/mm
- Tb.Sp (trabecular separation) [1, 7]: 131 ± 23^s.o μ
- Tb.Th (trabecular thickness) [1, 7]: 36.8 ± 3^s μ
- BFR/BS (bone formation rate) [1, 8]: 9.44 ± 2.4^o μ/d × 100
- BFR/TV (bone formation rate) [1, 8]: 29.94 ± 8.7 %/y
- BV/TV (cancellous bone volume) [1, 8]: 22.1 ± 5.2^s %
- MAR (mineral apposition rate) [1, 8]: 0.72 ± .08 μ/d
- MS/BS (mineralizing surface) [1, 8]: 13.05 ± 2.44^s %
- Tb.N (trabecular number) [1, 8]: 5.24 ± .82^s #/mm
- Tb.Sp (trabecular separation) [1, 8]: 153.1 ± 35^s μ
- Tb.Th (trabecular thickness) [1, 8]: 42.4 ± 7.3 μ
- dynamic parameters MS/BS, MAR, BFR/BS, BFR/TV of L-1 vertebra (in words) ([1]; continuous treatment): decreased MS/BS and BFR in a dose-dependent manner to Sham and EE2 levels
- BV/TV, trabecular thickness, trabecular number of L-1 vertebra (in words) ([1]; continuous treatment): little effect on BV/TV, trabecular thickness, or trabecular number
- MAR of L-1 vertebra (in words) ([1]; continuous treatment): not different from OVX
- volumetric BMD of proximal tibial metaphysis (pQCT) [2, 5]: prevented further bone loss and had BMD significantly greater than OVX at termination
- spinal BMD or BMC of L-3 vertebra (micro-CT) (osteopenic rats): marginal effects
